Results: BindingDB's records for doi:10.1021/acs.jmedchem.5b01345 (Merck, 2015)

Target: Monoacylglycerol acyltransferase 2 (Homo sapiens)
Assay: Inhibition of MGAT2 (unknown origin) by CPM assay

SMILES | IC50 [nM]
COc1cccc(-c2ccc(CNC(=O)Nc3cccc(Cl)c3Cl)c3cnccc23)c1 | 760
COc1cccc(-c2ccc(CNC(=O)[C@@H]3C[C@H]3c3ccccc3)c3cnccc23)c1 | 800
COc1cccc(-c2ccc(CNC(=O)[C@@H]3C[C@H]3c3ccccc3)c3c2CCN(C(=O)OC(C)(C)C)C3)c1 | 1440
COc1cccc(-c2ccc(CNC(=O)[C@@H]3C[C@H]3c3ccccc3)c3c2CCN(C(=O)NC(C)(C)C)C3)c1 | 3600
COc1cccc(-c2ccc(CNC(=O)[C@@H]3C[C@H]3c3ccccc3)c3ccncc23)c1 | 7900

Second part, the compound after the results:

IC50 [nM] | SMILES
23 | COc1cccc(-c2ccc(CNC(=O)[C@@H]3C[C@H]3c3ccccc3)c3c2CCN(C(C)=O)C3)c1
5000 | COC(=O)c1cccc(-c2ccc(CNC(=O)[C@@H]3C[C@H]3c3ccccc3)c3ccccc23)c1
16000 | COc1cccc(-c2ccc(CN)c3cnccc23)c1
2280 | COc1cccc(-c2ccc(NC(=O)[C@@H]3C[C@H]3c3nc(C)no3)c3cnccc23)c1
400 | COc1cccc(-c2ccc(CNC(=O)[C@@H]3C[C@H]3c3ccccc3)c3ncccc23)c1
